Reference: patent publication US9145415B2, “Nitrogen-containing heterocyclic compound or salt thereof” (FUJIFILM Corporation, priority 2012, dated 2015)
pIC50: −log10 of the molar value. Read-outs that look alike come from different tables or passages of the source.

Key:
[1] = target: T1, human FLT3 protein (FLT3 (WT)) (Homo sapiens, UniProt P36888); test: FLT3 inhibition test (FLT3 enzyme inhibition, time-resolved fluorescence of substrate peptide phosphorylation); assay type: biochemical; details: read-out: FLT3 (WT) enzyme inhibition activity
T1 construct: human FLT3 protein (intracellular region, 564 to 993 aa); GST; purchased Carna Biosciences; host or cells: baculovirus expression system
T1 sequence (P36888 564-993): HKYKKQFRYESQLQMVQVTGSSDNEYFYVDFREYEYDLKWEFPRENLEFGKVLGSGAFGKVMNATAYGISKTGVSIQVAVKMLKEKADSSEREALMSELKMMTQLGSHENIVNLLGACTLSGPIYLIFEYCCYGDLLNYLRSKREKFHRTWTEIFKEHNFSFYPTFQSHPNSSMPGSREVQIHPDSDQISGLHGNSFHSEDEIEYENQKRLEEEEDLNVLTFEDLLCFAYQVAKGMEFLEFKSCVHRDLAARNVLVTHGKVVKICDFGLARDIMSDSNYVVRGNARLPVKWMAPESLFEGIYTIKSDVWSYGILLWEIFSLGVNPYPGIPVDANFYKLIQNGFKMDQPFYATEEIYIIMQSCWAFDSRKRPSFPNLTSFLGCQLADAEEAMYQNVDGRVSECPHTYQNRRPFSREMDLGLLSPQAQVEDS
Procedure, shortened: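 Substrate peptide phosphorylation detected by time-resolved fluorescence after a 30 min kinase reaction at 25° C with 50 μM ATP (final). Beforehand, compound and FLT3 (WT, 1.2 μg) stood 15 min at 25° C in HEPES buffer pH 7.5 containing MgCl2, NaCl, BSA and DTT.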

MV4-11 cells = test: Leukemia cell proliferation inhibition test (ATPlite), MV4-11; assay type: cell-based; details: Homo sapiens, read-out: MV4-11 cell proliferation inhibition effect
Procedure, shortened: (§1)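 Molm-13 or MV4-11 cells in RPMI with 10% FBS and pen/strep, seeded at 10,000 cells per well, were exposed to serially diluted compound for 72 hours at 37° C, 5% CO2. Total cellular ATP was read by luciferase luminescence. GI50 came from sigmoid fits against the 0.1% DMSO control, in duplicate.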

Molm-13 cells = test: Leukemia cell proliferation inhibition test (ATPlite), Molm-13; assay type: cell-based; details: Homo sapiens, read-out: MOLM13 cell proliferation inhibition effect
Procedure, shortened: as §1

[2] = GST-fused human FLT3 (564 to 993 aa), ATP 50 μM
[3] = MV4-11, 72 h, MV4-11, 72 hours culture, ATPlite, GI50 per method
[4] = MOLM-13, 72 h, Molm-13, 72 hours culture, ATPlite, GI50 per method

Row | pIC50 [1, 2] | pIC50 (MV4-11 cells; [3]) | pIC50 (Molm-13 cells; [4]) | pIC50 ([1]; FLT3 (WT)) | pIC50 (MV4-11 cells; MV4-11, MV4-11 cell) | pIC50 (Molm-13 cells; MOLM-13, MOLM13 cell) | SMILES
1 | 7.00 to 8.00 | 7.00 to 8.00 | 7.00 to 8.00 |  |  |  | CCCNc1nc(Nc2cnc(C)c(C)c2)ncc1C#CCCCNC(=O)[C@H](C)N(C)C(=O)/C=C/CN(C)C [Compound 21-18]
2 |  |  |  | > 8.00 | > 8.00 | > 8.00 | CCCNc1nc(Nc2ccc3c(c2)c(F)nn3C)ncc1C#CCCCNC(=O)[C@H](C)N(C)C(=O)/C=C/CN(C)C [Compound 22-60]
3 | > 8.00 | 7.00 to 8.00 | 6.00 to 7.00 |  |  |  | CCCNc1nc(Nc2ccc(C(N)=O)cc2)ncc1-c1ccc(CNC(=O)CNC(=O)/C=C/CN(C)C)cc1 [Compound 16-2]
4 |  |  |  | > 8.00 | > 8.00 | > 8.00 | CCCNc1nc(Nc2cnc3c(c2)c(C)nn3CCOC)ncc1C#CCCCNC(=O)[C@@H]1CCCN1C(=O)/C=C/CN(C)C [Compound 22-46]
5 | > 8.00 | > 8.00 | > 8.00 |  |  |  | CNc1nc(Nc2ccc3c(cnn3C)c2)ncc1C#CCCCNC(=O)[C@H](C)N(C)C(=O)/C=C/CN(C)C [Compound 10-52]
6 | > 8.00 | > 8.00 | 7.00 to 8.00 |  |  |  | C[C@@H](C(=O)NCCCC#Cc1cnc(Nc2ccc(F)cc2)nc1N1CCCCC1)N(C)C(=O)/C=C/CN(C)C [Compound 10-38]
7 | > 8.00 | > 8.00 | > 8.00 |  |  |  | CCCN(CCC)c1nc(Nc2ccc(C#N)cc2)ncc1C#CCCCNC(=O)[C@H](C)N(C)C(=O)/C=C/CN(C)C [Compound 10-16]
8 | > 8.00 | > 8.00 | > 8.00 |  |  |  | C[C@@H](C(=O)NCCCC#Cc1cnc(Nc2ccc(F)c(F)c2)nc1NC1CC1)N(C)C(=O)/C=C/CN(C)C [Compound 21-2]

The next lines start with the compound.

Row | SMILES | pIC50 [1, 2] | pIC50 (MV4-11 cells; [3]) | pIC50 (Molm-13 cells; [4]) | pIC50 ([1]; FLT3 (WT)) | pIC50 (MV4-11 cells; MV4-11, MV4-11 cell) | pIC50 (Molm-13 cells; MOLM-13, MOLM13 cell)
9 | CCCNc1nc(Nc2ccc(C#N)cc2)ncc1C#CCCCNC(=O)[C@H](COC)N(C)C(=O)/C=C/CN(C)C [Compound 7-55] | > 8.00 | > 8.00 | > 8.00 |  |  | 
10 | C=CC(=O)NC(C)(C)C(=O)Nc1cccc(NC(=O)c2cnc(NCCc3ccncc3)nc2NCCC)c1 [Compound 2-4] | > 8.00 | > 8.00 | 7.00 to 8.00 |  |  | 
11 | C=CC(=O)Nc1cc(NC(=O)c2cnc(NCCc3ccncc3)nc2NCCC)cc(C(F)(F)F)c1 [Compound 2-28] | 6.00 to 7.00 | 6.00 to 7.00 | 6.00 to 7.00 |  |  | 
12 | CCCNc1nc(Nc2ccc(C(N)=O)cc2)ncc1C(=O)NC1CCCC(NC(=O)CN(C)C(=O)/C=C/CN(C)C)C1 (stereo not drawn) [Compound 3-4, (E)-2-((4-Carbamoylphenyl)amino)-N-(3-(2-(4-(dimethylamino)-N-methyl-2-butenamido)actamido)cyclohexyl)-4-(propylamino)pyrimidine-5-carboxamide] | > 8.00 | > 8.00 | > 8.00 |  |  | 
13 | C=CC(=O)NCC(=O)Nc1cccc(NC(=O)c2cnc(Nc3ccc(C(N)=O)cc3)nc2NCCC)c1 [Compound 3-8] | > 8.00 | 7.00 to 8.00 | 7.00 to 8.00 |  |  | 
14 | CCCNc1nc(Nc2cccc(F)c2)ncc1C#CCCCNC(=O)[C@H](C)N(C)C(=O)/C=C/CN(C)C [Compound 7-1, (S,E)-4-(dimethylamino)-N-(1-((5-(2-((3-fluorophenyl)amino)-4-(propylamino)pyrimidin-5-yl)-4-pentyn-1-yl)amino)-1-oxopropan-2-yl)-N-methyl-2-butenamide] | > 8.00 | > 8.00 | > 8.00 |  |  | 
15 | CCCNc1nc(Nc2ccc(C#N)cc2)ncc1C#CCCCNC(=O)CN(CCC)C(=O)/C=C/CN(C)C [Compound 7-64] | > 8.00 | > 8.00 | > 8.00 |  |  | 
16 | CCCNc1nc(Nc2ccc(C(=O)N(C)C)cc2)ncc1C#CCCCNC(=O)[C@H](C)N(C)C(=O)/C=C/CN(C)C [Compound 7-15] | 7.00 to 8.00 | > 8.00 | > 8.00 |  |  | 
17 | CCCNc1nc(Nc2ccc(C(N)=O)cc2)ncc1C(=O)Nc1cccc(NC(=O)[C@H](C)N(C)C(=O)/C=C/CN(C)CCO)c1 [Compound 4-9] | > 8.00 | > 8.00 | > 8.00 |  |  | 
